Measured values from patent US11162073B2, “Methods for generating functional hematopoietic stem cells” (The Brigham and Women's Hospital, Inc., priority 2015, dated 2021).
Entries after “also recorded” stand apart in the source; their conditions may differ.

How the values were obtained:
E11.5 AGM cells [1] = assay: E11.5 AGM explant culture with drugs followed by colony formation (CFU) assay; format: cell-based, mouse; conditions: for multipotent GEMM colony formation: E11.5 AGM, 24-48 hr incubation, CFU assay
From the text: We first coated each well of the 6-well FlexCell plate using Fibronectin/Matrigel and allowed it to settle on the nylon membrane of each well. Then we seeded two embryo equivalent (e.e.) single-cell suspension of AGM (composed of endothelial, hemogenic endothelial, hematopoietic, vascular smooth muscle (VSMCs), and mesenchymal stromal cells)-derived cells in each FlexCell well, with a coating of Fibronectin/Matrigel allows AGM-derived (sorted or not sorted) cells to adhere to the bottom of the well. We filled each well with an explant culture medium containing Myelocult and growth factors (27, 28). We put these 6-well plates into the FlexCell machine and applied cyclic strain (4-12%) for 6-48 hours using customized pins hooked to the bottom of each well. We inserted the customized rubber gasket in several wells to simulate static control conditions as well. Next we added drugs modulating the stretch-activated ion channel signaling in a few wells undergoing the external cyclic strain. After 6-48 hours of external stimulation of circumferential stretch, we harvested AGM-derived cells from the FlexCell plate and analyzed their capacity to make hematopoietic cells: (I) We performed CFU assays using Methocult media to count multi-potential granulocyte, erythroid, macrophage, megakaryocyte progenitors (GEMM), granulocyte-macrophage progenitors (CFU-GM, CFU-M, CFU-G), and erythroid progenitor (BFU-E) colonies after seven days of seeding AGM derived sorted cells. (II) We analyzed the expression levels of Runx1, c-Myb, Lmo2, Gata2, CD144, and Gata1. (III) We also stained AGM-derived cells with fluorescently labeled conjugated antibodies to measure the expression levels of Flk1, CD144, CD41, c-Kit, & CD45.2. (IV) We injected two e.e. AGM (donor; CD45.2)-derived cells in sub-lethally irradiated CD45.1 (SJL; recipient) mice. We analyzed long-term engraftment and multi-lineage reconstitution potential of donor cells for 16 weeks followed by serial-transplantation to differentiate between HSCs and hemogenic endothelial cells. (V) We also performed limiting dilution assays to analyze the number of HSCs generated per AGM-derived cell following 2D circumferential stretch.
Using a customized bioreactor based on organ-on-a-chip (FIG. 4), we applied 2D circumferential stretch (6% cyclic strain, 24 hr) to a single cell suspension of two e.e. E11.5 AGM cells. In parallel, we also incubated two e.e. E11.5 AGM static cells with Trpv4 agonist (GSK101 (29)).
(§1) In mice, the first heartbeat occurs at E8.25, and HSCs begin to emerge from AGM-derived hemogenic endothelium between E10.5-E12.5 (10, 11). To investigate whether circumferential stretch-activated ion channels are also involved in mammalian HSC emergence, we incubated E11.5 AGM with non-specific SAC channels inhibitor (GdCl3) and pan-Trpv channel inhibitor (Ruthenium Red) in explant culture media and analyzed their hematopoietic CFU capacity, and the expression of endothelial and hematopoietic genes (CD41, CD45.2, c-Kit, Flk1, CD144).
To further investigate the influence of Trpv4 on HSC formation from hemogenic endothelial cells, we incubated E11.5 AGM (28) with Trpv4 agonist (GSK101, 4α-PDD (44)) and Trpv4 antagonist (GSK 205) for 24-48 hr (FIG. 9).

zebrafish embryos = zebrafish embryos incubated with stretch-activated ion channel modulators, qRT-PCR and WISH for HSPC surrogate markers; format: in vivo; conditions: control zebrafish embryos, incubation between 19-42 hpf
From the text: An impact of circumferential stretch is communicated by member(s) of the […] superfamily, Trp-superfamily, ENaC/DEG superfamily, and/or Piezo family (36-39). […] However, the direct role of Trpv4 in HSC emergence has not been established. We therefore treated zebrafish embryos with a pan-inhibitor of Trpv channels (Ruthenium RED; (41)), Trpv4 antagonist (GSK 205; (42)), and Trpv4 agonist (GSK101; (29)) between 19-42 hpf, followed by qRT-PCR and WISH for HSPC surrogate markers (c-myb and runx1).

sih-silenced embryos = assay: silent heart (sih)-silenced zebrafish embryos incubated with trpv4 agonist, HSPC formation; format: in vivo
Procedure: Silent heart cardiac troponin (sih, tnnt2)-mutant embryos lack heartbeat and blood circulation (43). […] Because heartbeat-mediated pulse pressure on blood vessels stimulates HSC emergence, we studied whether the activation of the Trpv4 ion channels triggers HSC formation in the absence of a heartbeat and blood circulation. We therefore incubated sih-silenced embryos (casper or cd41:eGFP::flk1:mCherry) with trpv4 agonist (GSK101) between 19-42 hpf.

E11.5 AGM cells [2] = assay: transplant of treated E11.5 AGM cells into irradiated recipient mice, engraftment and multi-lineage reconstitution; format: in vivo, mouse; conditions: 2 e.e. AGM per recipient
From the text: We first coated each well of the 6-well FlexCell plate using Fibronectin/Matrigel and allowed it to settle on the nylon membrane of each well. Then we seeded two embryo equivalent (e.e.) single-cell suspension of AGM (composed of endothelial, hemogenic endothelial, hematopoietic, vascular smooth muscle (VSMCs), and mesenchymal stromal cells)-derived cells in each FlexCell well, with a coating of Fibronectin/Matrigel allows AGM-derived (sorted or not sorted) cells to adhere to the bottom of the well. We filled each well with an explant culture medium containing Myelocult and growth factors (27, 28). […] After 6-48 hours of external stimulation of circumferential stretch, we harvested AGM-derived cells from the FlexCell plate and analyzed their capacity to make hematopoietic cells: (I) We performed CFU assays using Methocult media to count multi-potential granulocyte, erythroid, macrophage, megakaryocyte progenitors (GEMM), granulocyte-macrophage progenitors (CFU-GM, CFU-M, CFU-G), and erythroid progenitor (BFU-E) colonies after seven days of seeding AGM derived sorted cells. (II) We analyzed the expression levels of Runx1, c-Myb, Lmo2, Gata2, CD144, and Gata1. […] We analyzed long-term engraftment and multi-lineage reconstitution potential of donor cells for 16 weeks followed by serial-transplantation to differentiate between HSCs and hemogenic endothelial cells. […]

[3] = test system: human umbilical vein endothelial cells (HUVEC); assay: incubation of HUVEC with Trpv4 agonist, intracellular calcium levels; format: cell-based
E11.5 AGM = E11.5 AGM explant culture, expression of endothelial and hematopoietic genes; format: cell-based, mouse; conditions: data not shown
Procedure: as §1

cdh5-silenced embryos = assay: cdh5-silenced zebrafish embryos incubated with NOS inhibitor, HSC formation; format: in vivo; conditions: incubation between 19-48 hpf
From the text: In zebrafish the heart begins to beat around 23 hpf, the blood circulation begins at approximately 24-26 hpf, and definitive HSCs emerge from hemogenic endothelial cells in the AGM region between 26-48 hpf (11). Blood flow generates shear-stress on the ventral wall of the aortic endothelium and stimulates the endothelial-to-HSC transition by activating the NOS pathway (12, 13). When we performed time-lapse confocal imaging of both the control and the cdh5-silenced cd41:eGFP:flk1:mCherry embryos between 30-48 hpf, we found cdh5-silenced cd41:eGFP^low HSCs emerging from flk1:mCherry^+ endothelial cells despite early circulation arrest (FIG. 1A-B). In addition, we incubated cdh5-silenced embryos in the presence of L-NAME, a pharmacological inhibitor of NOS (12), between 19-48 hpf. […] Thus, HSCs would emerge from hemogenic endothelial cells, despite impaired circulation and NOS inhibition. These striking data led us to investigate shear stress-independent biomechanical and molecular mechanisms responsible for the endothelial transition to HSCs.

## CCCCCCCCCC(=O)O[C@@H]1[C@@H](C)[C@@]2(O)[C@@H](C=C(CO)C[C@@]3(O)C(=O)C(C)=C[C@@H]23)[C@@H]2C(C)(C)[C@]12OC(=O)CCCCCCCCC [4α-PDD, 4alpha-phorbol 12,13-didecanoate]
E11.5 AGM cells [1]
  multipotent GEMM colony formation: stimulates multipotent progenitor (GEMM) formation; also recorded: stimulated multipotent GEMM formation

## CC(C)C[C@H](NC(=O)c1cc2ccccc2s1)C(=O)N1CCN(C(=O)[C@H](CO)NS(=O)(=O)c2ccc(Cl)cc2Cl)CC1 [GSK101]
Zebrafish embryos
  expression of HSPC surrogate markers runx1 and c-myb: enhances HSPC formation; also recorded: increased the expression of HSPC markers
sih-silenced embryos; sih-silenced cd41-eGFP:flk1-mCherry embryos
  formation of cd41:eGFP+ HSCs: rescues the formation of cd41:eGFP^+ HSCs
sih-silenced embryos; sih-silenced embryos, 19-42 hpf, WISH and qRT-PCR
  HSPC formation (mRNA expression levels of runx1 and c-myb): rescues hematopoietic stem progenitor cell (HSPC) formation
E11.5 AGM cells [1]
  multipotent GEMM colony formation: Increase in GEMM; also recorded: stimulates multipotent progenitor (GEMM) formation; also recorded: enhanced GEMM formation; also recorded: stimulated multipotent GEMM formation
E11.5 AGM cells [2]; after 8 weeks
  percentage of engraftment (CD45.2+ peripheral blood chimerism): Increase; also recorded: increased the percentage of engraftment
E11.5 AGM cells [2]; peripheral blood after 8 weeks
  multi-lineage reconstitution: increased
[3]
  [Ca+2]i levels: increase in [Ca^+2]i levels

## [Cl][Gd]([Cl])[Cl] [GdCl3, Gadolinium Chloride]
Zebrafish embryos
  expression of HSPC surrogate markers runx1 and c-myb: reduced
E11.5 AGM cells [1]; listed as GdC13
  multipotent GEMM colony formation: attenuates GEMM formation; also recorded: reduced
E11.5 AGM
  expression of hematopoietic genes: reduced

## CCCCCCOC(=O)[C@]1(O)C[C@@H]2O[C@@]1(C)n1c3ccccc3c3c4c(c5c6ccccc6n2c5c31)C(=O)NC4 [KT5720]
E11.5 AGM cells [1]; E11.5 AGM explant culture, together with Trpv4 agonist GSK101, 24 hr
  Trpv4 agonist-mediated increase in multipotent GEMM formation: attenuated; also recorded: attenuates stimulating impact of Trpv4 agonist

## COC(=O)[C@@H](N)CCCNC(=N)N[N+](=O)[O-] [L-NAME]
cdh5-silenced embryos
  HSC formation (zf-runx1 and zf-c-Myb expression): did not abolish HSC formation

## N.N.N.N.N.N.N.N.N.N.N.N.N.N.[Cl-].[Cl-].[Cl-].[Cl-].[Cl-].[Cl-].[O-2].[O-2].[Ru+3].[Ru+3].[Ru+4] [Ruthenium Red]
Zebrafish embryos
  expression of HSPC surrogate markers runx1 and c-myb: reduction in runx1 and c-myb expression
E11.5 AGM cells [1]
  multipotent GEMM colony formation: attenuates GEMM formation; also recorded: reduced
E11.5 AGM
  expression of hematopoietic genes: reduced
